These results are taken from publication PMC9465256, “Discovering monoacylglycerol lipase inhibitors by a combination of fluorogenic substrate assay and activity-based protein profiling” (Frontiers in Pharmacology, 2022).

The test system of assay [1] is HCC827 cells. Description: Cell viability assay (CCK-8), HCC827. It counts as cell-based. The following applies: HCC827, 48 h. As for the experimental part: (§1) Various cancer cell lines, including human colon cancer cell line HT-29, ovarian cell line OVCAR-3, melanoma cell line B16-F10, skin squamous cancer cells A431, cervical cancer cells Hela, lung cancer cell lines A549, H1975, and HCC827, were purchased from American type culture collection (ATCC). A431, H1975, B16-F10, OVCAR-3, HT-29, HCC827, Hela, and A549 cells were cultured in Dulbecco’s modified Eagle medium (DMEM, Gibco) containing 10% fetal bovine serum (FBS, Gibco), penicillin (100 U/ml) and streptomycin (100 μg/ml). All cell lines were maintained in a humidified 37°C incubator with 5% CO2. The medium was refreshed every 2–3 days and the cells were passaged at ∼90% confluence by adding the fresh medium, followed by vigorously pipetting the resuspend cells. Of note, the cells were only washed with PBS when a significant number of dead cells were observed.
(§2) The antiproliferation activity of the compounds against the cancer cell lines was evaluated using Cell Counting Kit-8. Briefly, cells (∼1,000 per well) in 100 µl of culture medium were plated in a 96-well plate for 24 h and 100 µl of medium with different concentrations of the tested compounds was added to each well for 48 h. Then 10 μl of CCK8 solution (#CK04, Dojindo) was added and incubated at 37°C for 2 h. The absorbance of each well was measured with a plate reader (BioTeck) at 450 nm. Cell viability was calculated as follows: cell viability (%) = [(As-Ab)/(Ac-Ab)] × 100. Among them, As represents the absorbance of experimental wells, Ab represents the absorbance of blank wells and Ac represents the absorbance of control wells. The experiments were repeated at least three times and IC50 values were determined by plotting a log(inhibitor) v. s normalized response (Variable slope) dose–response curve generated using GraphPad Prism software.

Assay [2] deals with HT-29 cells. Description: Cell viability assay (CCK-8), HT-29. The class given is cell-based, human. The following applies: HT-29, 48 h. The protocol:
as §1, §2

The subject of assay [3] is A431 cells. Description: Cell viability assay (CCK-8), A431. It counts as cell-based. Conditions: A431, 48 h, CCK-8. As for the experimental part: as §1, §2
In assay [4] the test system is B16-F10 cells. Description: Cell viability assay (CCK-8), B16-F10. It counts as cell-based. The following applies: B16-F10, 48 h, CCK-8. The protocol: as §1, §2
Assay [5] has as its system endogenous MAGL in cancer cells. Description: Competitive ABPP in cancer cell lysates: MAGL band. The class given is biochemical. The following applies: 10 μM preincubation, cancer cell lysates. The protocol: To identify the potential off-targets of the compounds with anti-cancer activities, ABPP was applied. Cancer cells were seeded in the dishes and were washed with PBS, scraped, centrifugated (3,000 × g, 3 min) and pellets snap frozen in liquid in nitrogen. For ABPP experiments, the cell pellets were lysed by probe sonication (3 × 10 bursts) in PBS, followed by the determination of protein concentration of the intact cell lysate by Qubit assay. […] The reactions were then quenched by 10 µl sample buffer (×4). The obtained samples were directly loaded and resolved on SDS-PAGE gel (10% acrylamide). The gel-based ABPP results were then scanned and analyzed using a ChemiDoc MP system (Cy3 settings, BioRad).

The test system of assay [6] is Hela cells. Description: Cell viability assay (CCK-8), Hela. The class given is cell-based. Conditions: 48 h. As for the experimental part:
as §1, §2

Assay [7] concerns the target T1, human MAGL (Homo sapiens, UniProt Q99685).
T1 construct: expressed in transfected cells; host or cells: HEK293T (transient transfection; membrane fraction)
T1 sequence (Q99685 1-303): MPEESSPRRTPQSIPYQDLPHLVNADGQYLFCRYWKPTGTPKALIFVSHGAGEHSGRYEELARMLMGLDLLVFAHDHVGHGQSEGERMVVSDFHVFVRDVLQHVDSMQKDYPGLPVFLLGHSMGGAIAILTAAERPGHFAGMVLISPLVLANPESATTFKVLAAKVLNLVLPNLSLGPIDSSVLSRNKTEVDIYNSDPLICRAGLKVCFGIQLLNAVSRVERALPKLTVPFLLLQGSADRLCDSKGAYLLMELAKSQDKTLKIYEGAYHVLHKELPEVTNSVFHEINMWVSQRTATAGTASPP
Description: MAGL activity assay (AA-HNA fluorogenic substrate). The class given is biochemical. The method in brief: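 Membranes from transiently transfected HEK293T cells overexpressing MAGL were preincubated with inhibitor for 30 min in 40 mM HEPES pH 7.5 with 0.1 mg/ml BSA. AA-HNA substrate was then added (10 µl of 200 µM stock), and fluorescence was read every minute for 30 min. Activity was taken from the slope between 5 and 15 min.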

The subject of assay [8] is A549 cells. Description: Cell viability assay (CCK-8), A549. The class given is cell-based. Conditions: A549, 48 h. As for the experimental part: as §1, §2
The subject of assay [9] is H1975 cells. Description: Cell viability assay (CCK-8), H1975. It counts as cell-based. Conditions: H1975, 48 h. The protocol: as §1, §2
Assay [10] has as its system OVCAR-3 cells. Description: Cell viability assay (CCK-8), OVCAR-3. The following applies: OVCAR-3, 48 h. The class given is cell-based. As for the experimental part:
as §1, §2

Assay [11] concerns serine hydrolases labeled by FP-TAMRA in mouse brain membrane proteome. Description: Competitive ABPP selectivity assay, mouse brain membrane proteome. The class given is biochemical. Conditions: 100 µM, FP-TAMRA 250 nM. The protocol:
Mouse brains were dounce homogenized lysis buffer (20 mM HEPES, 2 mM DTT, 1 mM MgCl2, 25 U/mL benzonase) and incubated on ice for 15 min, followed by low-speed spin (2,500 g, 3 min, 4 C) to remove debris. The supernatant was subjected to ultracentrifugation (100,000 g, 45 min, 4°C) to generate the cytosolic fraction in the supernatant, as well as the membrane fraction as a pellet. After removal of the soluble supernatant, the pellet was resuspended in storage buffer (20 mM HEPES, 2 mM DTT) by pipetting. Total protein concentrations in membrane and soluble fractions were determined using a Qubit protein assay (Invitrogen). The obtained samples were stored at −80°C until further use.
The competitive ABPP selectivity assay was performed according to the previously reported protocol. Briefly, mouse brain membrane proteome (2 mg/ml, 20 µl) was preincubated for 30 min with 0.5 µl of DMSO (vehicle) or inhibitor (100 μM, finial concentration). […] The reactions were then quenched by 10 µl sample buffer (×4). The obtained samples were directly loaded and resolved on SDS-PAGE gel (10% acrylamide). The gels were then scanned and analyzed using a ChemiDoc MP system (Cy3 settings, BioRad). All the samples were measured and duplicated.

In assay [12] the target is T2, human ABHD12 (Homo sapiens, UniProt Q8N2K0).
T2 construct: expressed in transfected cells; host or cells: HEK293T (transient transfection; membrane fraction)
T2 sequence (Q8N2K0 1-398): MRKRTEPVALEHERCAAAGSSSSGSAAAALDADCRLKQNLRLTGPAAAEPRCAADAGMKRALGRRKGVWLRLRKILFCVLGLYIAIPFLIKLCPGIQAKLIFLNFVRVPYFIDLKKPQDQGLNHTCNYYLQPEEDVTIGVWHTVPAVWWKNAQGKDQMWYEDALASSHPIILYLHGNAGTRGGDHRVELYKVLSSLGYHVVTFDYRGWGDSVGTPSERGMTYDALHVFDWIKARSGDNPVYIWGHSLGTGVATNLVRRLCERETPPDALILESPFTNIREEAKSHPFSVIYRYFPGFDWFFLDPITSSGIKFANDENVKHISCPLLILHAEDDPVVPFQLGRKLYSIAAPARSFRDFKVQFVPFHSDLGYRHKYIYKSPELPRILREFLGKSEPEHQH
Description: ABHD12 activity by competitive ABPP with FP-TAMRA. It counts as biochemical. The following applies: 100 µM compound, competitive ABPP with probe FP-TAMRA (250 nM), read-out: ABHD12 Inhibition (%). The essentials:
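Membrane fractions of HEK293T cells transiently overexpressing human ABHD12 (1 mg/ml) preincubated with inhibitor or DMSO for 30 min at room temperature, then labelled with FP-TAMRA (250 nM final) for 20 min. Quenched samples resolved by SDS-PAGE and read by in-gel fluorescence scanning (Cy3 settings).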

Assay [13] has as its target T3, human ABHD6 (Homo sapiens, UniProt Q9BV23).
T3 construct: expressed in transfected cells; host or cells: HEK293T (transient transfection; membrane fraction)
T3 sequence (Q9BV23 1-337): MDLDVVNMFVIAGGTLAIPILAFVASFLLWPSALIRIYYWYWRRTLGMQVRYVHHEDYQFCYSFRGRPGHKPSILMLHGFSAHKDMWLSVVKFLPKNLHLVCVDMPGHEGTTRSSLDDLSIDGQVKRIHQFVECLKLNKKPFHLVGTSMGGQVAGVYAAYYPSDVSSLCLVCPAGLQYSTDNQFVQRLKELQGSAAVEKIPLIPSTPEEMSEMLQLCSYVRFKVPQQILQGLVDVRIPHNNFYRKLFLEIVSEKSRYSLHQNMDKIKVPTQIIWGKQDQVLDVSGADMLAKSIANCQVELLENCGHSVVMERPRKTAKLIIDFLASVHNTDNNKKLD
Description: ABHD6 activity assay (AA-HNA fluorogenic substrate). Conditions: 100 µM, AA-HNA substrate assay, Supplementary Table 2, read-out: ABHD6 Inhibition (%). It counts as biochemical. The essentials: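 Membranes from HEK293T cells transiently overexpressing human ABHD6 (50 μg/ml final) were preincubated 30 min with inhibitor in 40 mM HEPES pH 7.5, 0.1 mg/ml BSA, 5% DMSO. Hydrolysis of 200 µM AA-HNA was followed by fluorescence for 30 min, activity taken as the 5–15 min slope.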

Setting [14] is: 100 µM, AA-HNA substrate assay, Supplementary Table 1, read-out: MAGL Inhibition (%).

Entries after “also recorded” stand apart in the source; their conditions may differ.

Turning to `O=C(OC(C(F)(F)F)C(F)(F)F)N1CCC(C(O)(c2ccc3c(c2)OCO3)c2ccc3c(c2)OCO3)CC1` [KML29, reference compound], in assay [1], the “Antiproliferation activity (pIC50 ± SEM) HCC827” value is reported as below 5. Moreover, the “Antiproliferation activity (pIC50 ± SEM) HT-29” value in assay [2] is reported as 5.0 ± 0.3. For the same compound, in [3], the “Antiproliferation activity (pIC50 ± SEM) A431” value is given as below 5. Also, the “Antiproliferation activity (pIC50 ± SEM) B16-F10” value in [4] is listed as 5.0 ± 0.2. In addition, the “fluorescent band of MAGL (∼33 kDa) in ABPP gels” value in assay [5] is on record as “competed away”. Moreover, the “Antiproliferation activity (pIC50 ± SEM) Hela” value in [6] is given as below 5. Moreover, in assay [7] (30 min preincubation, dose-response curve, read-out: IC50 (MAGL, AA-HNA assay)), the IC50 came to 87 nM. In assay [7] (preincubation with 1 µM), the “effect on fluorescent signal of AA-HNA hydrolysis by MAGL” value is “significantly reduced the fluorescent signal to the background level; also recorded: reduction of the fluorescent signal”. The “Antiproliferation activity (pIC50 ± SEM) A549” value in assay [8] is reported as below 5. The “Antiproliferation activity (pIC50 ± SEM) H1975” value in assay [9] is listed as below 5. Further, in [10], the “Antiproliferation activity (pIC50 ± SEM) OVCAR-3” value is below 5.
For `Cc1cc2c(C(C)C)c(O)c(O)c(C=O)c2c(O)c1-c1c(C)cc2c(C(C)C)c(O)c(O)c(C=O)c2c1O` [compound 34, Gossypol Acetate], the “selectivity profile over serine hydrolases” value (from here on “selectivity profile”) in assay [11] is “broad-spectrum inhibitors that cross-reacted with multiple serine hydrolases”. Also, the activity at 100 µM in assay [12] stood at 43.7%; in assay [13], 26.3%; in [7] (setting [14]) it was 35.2%.
Turning to `O=C(CCc1ccc(O)cc1)c1c(O)cc(O)cc1O` [compound 66, Dihydronaringenin], the “selectivity profile” value in [11] is given as “broad-spectrum inhibitors that cross-reacted with multiple serine hydrolases”. Further, the activity in assay [12] is 119%; in assay [13], 115%; in assay [7] (setting [14]), 41.3%.
On to `O=C(CCc1ccc(O)cc1)c1c(O)cc(O)cc1O[C@@H]1O[C@H](CO)[C@@H](O)[C@H](O)[C@H]1O` [compound 67, Phlorizin], for which the activity at 100 µM in assay [12] worked out at 96.7%; in assay [13] it was 116%; in [7] (setting [14]), 75.9%.
On the same counts, the results for `O=C(/C=C/C=C/c1ccc2c(c1)OCO2)N1CCCCC1` [compound 68, Piperine] are 90.8%, 112% and 99.7%.
Turning to `O=c1c(-c2ccc(O)cc2)coc2c([C@@H]3O[C@H](CO)[C@@H](O)[C@H](O)[C@H]3O)c(O)ccc12` [compound 69, Puerarin], the figures for the activity at 100 µM in assay [12], in [13] and in assay [7] (setting [14]) were 104%, 119% and 94.8%, respectively.
Turning to `O=c1c(O)c(-c2ccc(O)c(O)c2)oc2cc(O)cc(O)c12` [compound 70, Quercetin], the “selectivity profile” value in assay [11] was “broad-spectrum inhibitors that cross-reacted with multiple serine hydrolases”. Also, the activity at 100 µM in [12] is 75.1%; in assay [13] it was 48.6%; in assay [7] (setting [14]), 42%.
For the compound `O=c1c2ccccc2nc2n1CCc1c-2[nH]c2ccccc12` [compound 71, Rutaecarpine], the results for the activity at 100 µM in assay [12], in assay [13] and in [7] (setting [14]) were 97%, 111% and 99.2%, respectively.
For `C[C@@H]1O[C@@H](OC[C@H]2O[C@@H](Oc3c(-c4ccc(O)c(O)c4)oc4cc(O)cc(O)c4c3=O)[C@H](O)[C@@H](O)[C@@H]2O)[C@H](O)[C@H](O)[C@H]1O` [compound 72, Rutin], the activity at 100 µM in assay [12] worked out at 84.3%; in assay [13], 119%; in [7] (setting [14]) it was 75.9%.
Take Methyl-Hesperidin [compound 50]: the activity in assay [12] came to 76.8%; in assay [13] it was 94.2%; in assay [7] (setting [14]), 62.5%.
As for Myricitrin [compound 53], the percent inhibition in assay [12] is 70%; in assay [7] (read-out: MAGL Inhibition (%), 100 µM, AA-HNA substrate assay, Supplementary Table 1), 93.1%. Besides, in [13], the percent inhibition of ABHD6 was found to be 105%.

In general, IC50 refers to the concentration that inhibits the measured activity by half.
